Common to all, as to assay: Bliss interaction score (quartile over a dose matrix) (fitness difference); higher = more antagonism (negative = synergy)
One experiment relates to B. subtilis 168. A digest of the protocol:
(§1)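 Fitness was defined as normalised growth: OD595 at the start of stationary phase divided by the plate's robust no-drug mean and capped at 1. Single-drug fitness was inferred from combination measurements. The Bliss score is observed fitness minus the product of the single-drug values, summarised by quartiles across technical, biological and donor/recipient replicates.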

The next experiment relates to S. aureus DSM 20231. An outline of the steps: as §1
In another experiment the test system is S. aureus Newman. A digest of the protocol: as §1
Another experiment has as its system S. pneumoniae D39V. A digest of the protocol:
as §1
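Note: first quartile when negative (synergy) and third quartile when positive (antagonism).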

In the case of `CC(=O)Oc1ccccc1C(=O)O` [Acetylsalicylicacid] + O=C(O[C@@H]1Cc2c(O)cc(O)cc2O[C@@H]1c1cc(O)c(O)c(O)c1)c1cc(O)c(O)c(O)c1 [EGCG], the Bliss interaction score with B. subtilis 168 is 0.141; in the experiment on S. aureus DSM 20231, 0.159; in the experiment on S. aureus Newman, 0.0426; in the experiment with S. pneumoniae D39V it was -0.0702.

Take `CC(=O)Oc1ccccc1C(=O)O` [Acetylsalicylicacid] + Oc1cc(Cl)ccc1Oc1ccc(Cl)cc1Cl [Triclosan]: the Bliss interaction score in the experiment on B. subtilis 168 is 0.129; in the experiment on S. aureus DSM 20231, -0.114; in the experiment on S. aureus Newman, -0.0273; with S. pneumoniae D39V it was -0.0513.

`N#CC(C#N)=NNc1cccc(Cl)c1` [CCCP] + C/C(=C\C(=O)OCCCCCCCCC(=O)O)C[C@@H]1OC[C@H](C[C@@H]2O[C@H]2[C@@H](C)[C@H](C)O)[C@@H](O)[C@H]1O [Pseudomonic acid]: the Bliss interaction score with B. subtilis 168 was -0.137; with S. aureus DSM 20231, 0.0141; with S. aureus Newman, -0.0111; with S. pneumoniae D39V, 0.0939.

For the compound `N#CC(C#N)=NNc1cccc(Cl)c1` [CCCP] + CC1(C)S[C@@H]2[C@H](NC(=O)Cc3ccccc3)C(=O)N2[C@H]1C(=O)O [PenicillinG], the Bliss interaction score in the experiment with B. subtilis 168 is 0.0568; in the experiment on S. aureus DSM 20231, 0.0402; in the experiment with S. aureus Newman, -0.0514; with S. pneumoniae D39V it was 0.0767.

In the case of `N#CC(C#N)=NNc1cccc(Cl)c1` [CCCP] + CC1=C(C(=O)O)N2C(=O)[C@@H](NC(=O)[C@H](N)c3ccccc3)[C@H]2SC1 [Cephalexin], the Bliss interaction score in the experiment with B. subtilis 168 was 0.0431; in the experiment with S. aureus DSM 20231, 0.0708; in the experiment on S. aureus Newman, -0.0498; in the experiment with S. pneumoniae D39V, -0.0759.

Turning to `N#CC(C#N)=NNc1cccc(Cl)c1` [CCCP] + CC1=C\[C@@H](O)CC(=O)Cc2nc(co2)C(=O)N2CCC=C2C(=O)O[C@H](C(C)C)[C@H](C)/C=C/C(=O)NC\C=C\1 [Virginiamycin M1], the Bliss interaction score is -0.0262 with B. subtilis 168, 0.0407 in the experiment on S. aureus DSM 20231, -0.0388 in the experiment with S. aureus Newman and 0.0981 with S. pneumoniae D39V.

For `N#CC(C#N)=NNc1cccc(Cl)c1` [CCCP] + CC(=O)NC[C@H]1CN(c2ccc(N3CCOCC3)c(F)c2)C(=O)O1 [Linezolid], the Bliss interaction score in the experiment with B. subtilis 168 is 0.0322; in the experiment with S. aureus DSM 20231, -0.0274; in the experiment on S. aureus Newman, 0.0931; in the experiment with S. pneumoniae D39V it was 0.0853.

With `N#CC(C#N)=NNc1cccc(Cl)c1` [CCCP] + CC(=O)O[C@H]1C[C@@]2(C)[C@@H](C[C@@H](O)[C@H]3[C@@]4(C)CC[C@@H](O)[C@@H](C)[C@@H]4CC[C@@]32C)/C1=C(\CCC=C(C)C)C(=O)O [Fusidic acid], the Bliss interaction score with B. subtilis 168 is -0.18; in the experiment on S. aureus DSM 20231, 0.0429; in the experiment on S. aureus Newman it was 0.0673; in the experiment with S. pneumoniae D39V, 0.122.

On to `N#CC(C#N)=NNc1cccc(Cl)c1` [CCCP] + CC(C1CCC(C(O1)OC2C(CC(C(C2O)OC3C(C(C(CO3)(C)O)NC)O)N)N)N)NC [Gentamicin], for which the Bliss interaction score is 0.259 in the experiment on B. subtilis 168 (main component drawn), 0.0926 with S. aureus DSM 20231 (main component drawn), 0.116 with S. aureus Newman (main component drawn) and 0.0882 in the experiment on S. pneumoniae D39V (main component drawn).

As to `N#CC(C#N)=NNc1cccc(Cl)c1` [CCCP] + CCC(C)C1C(=O)NC(=C)C(=O)NC(C(=O)NC(CSCC(C(=O)N1)NC(=O)/C(=C/C)/NC(=O)C(C(C)CC)N)C(=O)NC2C(SCC(NC(=O)CNC(=O)C3CCCN3C2=O)C(=O)NC(CCCCN)C(=O)NC4C(SCC(NC(=O)CNC(=O)C(NC(=O)C(NC(=O)C(NC(=O)CNC4=O)C)CC(C)C)CCSC)C(=O)NC(CC(=O)N)C(=O)NC(CCSC)C(=O)NC(CCCCN)C(=O)NC5C(SCC6C(=O)NC(C(=O)NC(CSC(C(C(=O)N6)NC(=O)C(NC5=O)C)C)C(=O)NC(CO)C(=O)NC(C(C)CC)C(=O)NC(CC7=CN=CN7)C(=O)NC(C(C)C)C(=O)NC(=C)C(=O)NC(CCCCN)C(=O)O)CC8=CN=CN8)C)C)C)CC(C)C [Nisin], the Bliss interaction score in the experiment with B. subtilis 168 (main component drawn) is 0.0522; in the experiment with S. aureus DSM 20231 (main component drawn), 0.0712; with S. aureus Newman (main component drawn), -0.0401; in the experiment with S. pneumoniae D39V (main component drawn), -0.0317.

`N#CC(C#N)=NNc1cccc(Cl)c1` [CCCP] + CCCCCCCCCC(=O)N[C@@H]1[C@H]([C@@H]([C@H](O[C@H]1OC2=C3C=C4C=C2OC5=C(C=C(C=C5)[C@H]([C@H]6C(=O)N[C@@H](C7=C(C(=CC(=C7)O)OC8[C@H]([C@H]([C@@H]([C@H](O8)CO)O)O)O)C9=C(C=CC(=C9)[C@H](C(=O)N6)NC(=O)[C@@H]4NC(=O)[C@@H]1C2=CC(=CC(=C2)OC2=C(C=CC(=C2)[C@H](C(=O)N[C@H](CC2=CC(=C(O3)C=C2)Cl)C(=O)N1)N)O)O)O)C(=O)O)O[C@H]1[C@@H]([C@H]([C@@H]([C@H](O1)CO)O)O)NC(=O)C)Cl)CO)O)O [Teicoplanin]: the Bliss interaction score was 0.17 in the experiment with B. subtilis 168 (main component drawn), 0.0772 with S. aureus DSM 20231 (main component drawn), -0.0483 in the experiment on S. aureus Newman (main component drawn) and 0.096 in the experiment with S. pneumoniae D39V (main component drawn).

In the case of `N#CC(C#N)=NNc1cccc(Cl)c1` [CCCP] + CCC[C@@H]1C[C@@H](C(=O)N[C@@H]([C@H]2O[C@H](SC)[C@H](O)[C@@H](O)[C@H]2O)[C@@H](C)O)N(C)C1 [Lincomycin], the Bliss interaction score is -0.0311 in the experiment with B. subtilis 168, -0.0627 with S. aureus DSM 20231, 0.116 in the experiment with S. aureus Newman and 0.0513 in the experiment with S. pneumoniae D39V.

Regarding `N#CC(C#N)=NNc1cccc(Cl)c1` [CCCP] + CCC[C@@H]1C[C@@H](C(=O)N[C@@H]([C@H]2O[C@H](SC)[C@H](O)[C@@H](O)[C@H]2O)[C@H](C)Cl)N(C)C1 [Clindamycin], the Bliss interaction score was -0.0426 in the experiment on B. subtilis 168, 0.0216 in the experiment with S. aureus DSM 20231, 0.0938 with S. aureus Newman and -0.138 with S. pneumoniae D39V.

On to `N#CC(C#N)=NNc1cccc(Cl)c1` [CCCP] + CCN(CC)CCOC(=O)c1ccc(N)cc1 [Procaine], for which the Bliss interaction score in the experiment on B. subtilis 168 was 0.0328; with S. aureus DSM 20231 it was -0.0522; in the experiment with S. aureus Newman, -0.0249; in the experiment with S. pneumoniae D39V, 0.0668.

Consider `N#CC(C#N)=NNc1cccc(Cl)c1` [CCCP] + CC[C@H]1OC(=O)[C@H](C)C(=O)[C@H](C)[C@@H](O[C@@H]2O[C@H](C)C[C@H](N(C)C)[C@H]2O)[C@](C)(OC)C[C@@H](C)C(=O)[C@H](C)[C@H]2N(CCCCn3cnc(-c4cccnc4)c3)C(=O)O[C@]12C [Telithromycin], for which the Bliss interaction score with B. subtilis 168 was -0.0441; in the experiment with S. aureus DSM 20231 it was -0.0246; with S. aureus Newman, -0.0206; in the experiment on S. pneumoniae D39V, -0.0245.

Regarding `N#CC(C#N)=NNc1cccc(Cl)c1` [CCCP] + CC[C@H]1OC(=O)[C@H](C)[C@@H](O[C@H]2C[C@@](C)(OC)[C@@H](O)[C@H](C)O2)[C@H](C)[C@@H](O[C@@H]2O[C@H](C)C[C@H](N(C)C)[C@H]2O)[C@](C)(O)C[C@@H](C)C(=O)[C@H](C)[C@@H](O)[C@]1(C)O [Erythromycin], the Bliss interaction score with B. subtilis 168 is -0.0587; with S. aureus DSM 20231, 0.023; in the experiment on S. aureus Newman, 0.0472; in the experiment on S. pneumoniae D39V it was -0.0863.

Consider `N#CC(C#N)=NNc1cccc(Cl)c1` [CCCP] + CC[C@H]1OC(=O)[C@H](C)[C@@H](O[C@H]2C[C@@](C)(OC)[C@@H](O)[C@H](C)O2)[C@H](C)[C@@H](O[C@@H]2O[C@H](C)C[C@H](N(C)C)[C@H]2O)[C@](C)(OC)C[C@@H](C)C(=O)[C@H](C)[C@@H](O)[C@]1(C)O [Clarithromycin], for which the Bliss interaction score in the experiment on B. subtilis 168 was 0.0363; in the experiment on S. aureus DSM 20231, -0.0461; in the experiment with S. aureus Newman it was 0.0706; in the experiment with S. pneumoniae D39V it was -0.0531.

For the compound `N#CC(C#N)=NNc1cccc(Cl)c1` [CCCP] + CN1C2=CC=CC=C2N=C3C1=CC=CC3=O [Pyocyanin], the Bliss interaction score is -0.0772 in the experiment with B. subtilis 168, -0.0215 in the experiment with S. aureus DSM 20231, -0.0376 in the experiment with S. aureus Newman and -0.0451 in the experiment with S. pneumoniae D39V.

With `N#CC(C#N)=NNc1cccc(Cl)c1` [CCCP] + CN(C)C(=O)C(CCN1CCC(O)(c2ccc(Cl)cc2)CC1)(c1ccccc1)c1ccccc1 [Loperamide], the Bliss interaction score is 0.0251 with B. subtilis 168, -0.0407 in the experiment on S. aureus DSM 20231, 0.0942 in the experiment with S. aureus Newman and -0.227 in the experiment with S. pneumoniae D39V.

`N#CC(C#N)=NNc1cccc(Cl)c1` [CCCP] + CN(C)[C@@H]1C(O)=C(C(N)=O)C(=O)[C@@]2(O)C(O)=C3C(=O)c4c(O)ccc(Cl)c4[C@@](C)(O)[C@H]3C[C@@H]12 [Clortetracycline]: the Bliss interaction score with B. subtilis 168 is -0.0685; in the experiment on S. aureus DSM 20231 it was 0.0445; in the experiment with S. aureus Newman, 0.0865; in the experiment with S. pneumoniae D39V, -0.0306.

In the case of `N#CC(C#N)=NNc1cccc(Cl)c1` [CCCP] + CN(C)c1cc(NC(=O)CNC(C)(C)C)c(O)c2c1C[C@H]1C[C@H]3[C@H](N(C)C)C(O)=C(C(N)=O)C(=O)[C@@]3(O)C(O)=C1C2=O [Tigecycline], the Bliss interaction score is -0.0512 in the experiment with B. subtilis 168, 0.0272 with S. aureus DSM 20231, -0.0359 in the experiment with S. aureus Newman and 0.102 in the experiment on S. pneumoniae D39V.

Values taken from the supplement of paper PMC10627819.
